From US20250382306A1, “HETEROCYCLIC COMPOUND AS TAAR1 LIGAND AGONIST” (SHANDONG LUYE PHARMACEUTICAL CO., LTD., priority 2022, published 2025)
Like-named read-outs stand apart in the source and are kept apart here.

Assays:
TAAR1 = biological target: T1, TAAR1 (Homo sapiens, UniProt Q96RJ0); experiment: In vitro TAAR1 functional activity (cAMP Hunter CHO-K1 TAAR1 Gs cell line, HitHunter cAMP assay); type: cell-based; conditions: chemiluminescence cAMP readout
T1 construct: expressed in transfected cells; host or cells: CHO-K1 (cAMP Hunter TAAR1 Gs cell line)
T1 sequence (Q96RJ0 1-339): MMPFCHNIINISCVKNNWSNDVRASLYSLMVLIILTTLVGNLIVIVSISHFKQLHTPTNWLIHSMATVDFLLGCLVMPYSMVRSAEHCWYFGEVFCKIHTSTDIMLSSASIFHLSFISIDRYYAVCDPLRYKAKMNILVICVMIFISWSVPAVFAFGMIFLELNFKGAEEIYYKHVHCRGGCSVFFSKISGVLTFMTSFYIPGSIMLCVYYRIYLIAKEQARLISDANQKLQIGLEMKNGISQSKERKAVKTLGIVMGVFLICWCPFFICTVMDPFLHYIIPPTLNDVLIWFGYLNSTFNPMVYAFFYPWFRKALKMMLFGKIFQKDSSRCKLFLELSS
Procedure: Test Example 1. In Vitro Evaluation of Intrasynaptic and Extrasynaptic Functional Activities in Cells
Cell: CAMP Hunter™ CHO-K1 TAAR1 Gs Cell Line
Assay Reagent: HitHunter cAMP Assay Detection Kit
Experimental Instrument: PerkinElmer Envision™ Chemiluminescence Signal Detector
Experimental method: cell treatment: The cAMP Hunter cell strain was cultured at 37° C. with 5% CO2 to 70-80% confluence. The cells were harvested, and the cell density was adjusted to 1.5×10^4 cells/mL. The cells were seeded in a white-wall 384-well microwell plate at a volume of 20 μL, and incubated at 37° C. with 5% CO2 overnight. The cell medium was discarded, and 15 μL of 2:1 HBSS/10 mM Hepes:cAMP XS+Ab reagent was added to each well. The mother solution of the sample was diluted with an assay buffer in a concentration gradient to a 4× sample, and 5 μL of the 4× sample was added to each well. The plate was incubated at 37° C. or room temperature for 30 or 60 min. […] 20 μL of cAMP XS+EA reagent was added to each well, and the plate was incubated at room temperature for 3 h. The chemiluminescence signal was read using a PerkinElmer Envision™ detector.
Data analysis: EC50 was calculated using CBIS data analysis software (ChemInnovation, CA). The activity percentage was calculated using the following formula: % activity=100%×(test sample average RLU−solvent control average RLU)/(maximum control average RLU−solvent control average RLU).

[1] = Pharmacokinetic study in dogs; conditions: dog, in vivo, po; Beagle dogs, plasma, after intragastric L15 hydrochloride 2 mg/kg (as free base); label = analyte
Procedure: Test Example 3. Pharmacokinetic Study in Dogs
Dog: Beagle dogs weighing 11-13 kg
(§1) Reagent: acetonitrile, MERCK; methanol, MERCK; formic acid, Sigma; tolbutamide, Sigma.
Instrument: water purification equipment, Millipore; electronic balance, METTLER TOLEDO; high-speed benchtop centrifuge, Thermo; water bath thermostatic oscillator, Shanghai Yiheng Technical Co., Ltd.; vortex oscillator, Thermo; liquid chromatography-mass spectrometry, AB SCIEX.
Method: L15 hydrochloride was administered intragastrically at a dose of 2 mg/kg (calculated based on free base), 2 Beagle dogs in each group. The vehicles were DMSO and Tween 80. Whole blood samples were separately collected at 0, 5 min, 15 min, 30 min, 1 h, 2 h, 3 h, 4 h, 6 h, 8 h, 12 h, and 24 h. The whole blood was placed in a heparinized EP tube and centrifuged at 13,500 rpm for 10 min to separate the plasma. After pretreatment, the plasma was analyzed by LC-MS/MS to determine the concentration of the test compound in the plasma.

[2] = test system: MK801-induced overactivity; experiment: Pharmacodynamic study in mice, MK-801 overactivity model (Test Example 4); type: in vivo; conditions: C57 mice; for total movement distance after modeling: MK-801 0.8 mg/kg i.p., 30-60 min after administration, p<0.05 vs model group 63052.14±21618.80 mm
Procedure: Test Example 4. Pharmacodynamic Study in Mice
Mouse: C57 mice weighing 20-22 g
Instrument: electronic balance, METTLER TOLEDO; TopScan monitoring system.
(§2) 4.1. model preparation: MK-801 induces overactivity in mice and is commonly used for preclinical evaluation of antipsychotics. The modeling method in this test was: The mice were injected with MK-801 intraperitoneally in at single dose of 0.8 mg/kg.
4.2. Experimental grouping: The mice were randomly divided into model group, 1-b group, and L27 group, 10 animals in each group, as shown in Table 5.
(§3) The mice were randomly divided into groups. At the start of the test, the test samples were administered intragastrically at an single dose according to the doses shown in Table 5, and the mice were placed in an activity chamber. After 30 min, each mouse was injected intraperitoneally with 0.8 mg/kg of MK-801 for modeling, and placed in the activity chamber again. The movement distance (mm) of the mice after modeling (i.e., within 30-60 min after administration) was recorded and analyzed using a TopScan monitoring system.
(§4) […] The total movement distance of the mice after modeling (30-60 min after administration) was recorded.
(§5) Data analysis and processing were carried out using Graphpad 5.0 software. ANOVA test was used to compare the total movement distance between each administration group and model group within 30-60 min.

[3] = test system: MK801-induced overactivity; experiment: Pharmacodynamic study in mice, MK-801 overactivity model (Test Example 5); type: in vivo, C57 mice; conditions: 3 mg/kg intragastric; for total movement distance after modeling: MK-801 0.8 mg/kg i.p., 30-60 min after administration, p<0.05 vs model group 101535.71±26076.11 mm
Procedure: as §2, §3, §4, §5
Test Example 5. Pharmacodynamic Study in Mice
5.1. Experimental grouping: The mice were randomly divided into model group, 1-b group, and 2-a group, 5 animals in each group, as shown in Table 6. The model preparation, test method, observation of indexes and statistical method were the same as those in Test Example 4.

[4] = Pharmacokinetic study in rats; type: in vivo, SD rats; conditions: for Cmax: read-out: Cmax or C0
Procedure: Test Example 2. Pharmacokinetic Study in Rats
Rat: SD Rats Weighing 200-250 g
as §1
Instrument: water purification equipment, Millipore; electronic balance, METTLER TOLEDO; high-speed benchtop centrifuge, Thermno; water bath thermostatic oscillator, Shanghai Yiheng Technical Co., Ltd.; vortex oscillator, Thermno; liquid chromatography-mass spectrometry, AB SCIEX.
Method: The SD rats were dosed intravenously (IV) and intragastrically (IG), 3 SD rats in each group. Compounds 1-b, 2-a and L27 were separately administered, and the vehicles were DMSO and Tween 80. […] Whole blood samples were separately collected at 0, 5 m (intravenous), 15 m, 30 mi, 1 h, 2 h, 4 h, 6 h, 8 h, 12 h, and 24 h. The whole blood was placed in a heparinized EP tube and centrifuged at 13,500 rpm for 10 min to separate the plasma. After pretreatment, the plasma was analyzed by LC-MS/MS to determine the concentration of the test compound in the plasma.

[5] = cAMP Hunter CHO-K1 TAAR1 Gs cell line, read-out: EC50
[6] = SD rats, 1-b IV 2 mg/kg, analyte 1-b
[7] = Sprague-Dawley, rat, in vivo, po, SD rats, plasma, 1-b IG 5 mg/kg, analyte 1-b
[8] = Sprague-Dawley, rat, in vivo, SD rats, plasma, 1-b IV 2 mg/kg, analyte 1-b
[9] = EC50, cAMP Hunter CHO-K1 TAAR1 Gs cell line

## COc1ccsc1C1CNCCO1 (single isomer, unassigned) [Compound 10-a]
TAAR1; [5]
  EC50: 0.028 µM

## COc1ccsc1C1CNCCO1 (single isomer, unassigned) [Compound 10-b]
TAAR1; [5]
  EC50: 0.386 µM

## CNCC1OC(C)Cc2ccsc21 (single isomer, unassigned) [Compound 28-a]
TAAR1; [5]
  EC50: > 10 µM

## CNCC1OC(C)Cc2ccsc21 (single isomer, unassigned) [Compound 28-b]
TAAR1; [5]
  EC50: 1.84 µM

## CNCC1OCC(c2ccccc2)c2ccsc21 (single isomer, unassigned) [Compound 32-a]
TAAR1; [5]
  EC50: > 10 µM

## CNCC1OCC(c2ccccc2)c2ccsc21 (single isomer, unassigned) [Compound 32-b]
TAAR1; [5]
  EC50: > 10 µM

## CNCC1OCC(c2ccccc2)c2ccsc21 (single isomer, unassigned) [Compound 32-c]
TAAR1; [5]
  EC50: > 10 µM

## CNCC1OCC(c2ccccc2)c2ccsc21 (single isomer, unassigned) [Compound 32-d]
TAAR1; [5]
  EC50: > 10 µM

## CN1CCc2ccsc2C1CN (single isomer, unassigned) [Compound 42-a]
TAAR1; [5]
  EC50: > 10 µM

## CN1CCc2ccsc2C1CN (single isomer, unassigned) [Compound 42-b]
TAAR1; [5]
  EC50: 0.244 µM

## NCC1SCCc2ccsc21 (single isomer, unassigned) [Compound 43-a]
TAAR1; [5]
  EC50: > 10 µM

## NCC1SCCc2ccsc21 (single isomer, unassigned) [Compound 43-b]
TAAR1; [5]
  EC50: 0.031 µM

## c1cc2c(s1)[C@H]1CNCCN1CC2 [Compound 1-a]
TAAR1; [5]
  EC50: 9.12 µM

## c1cc2c(s1)[C@@H]1CNCCN1CC2 [Compound 1-b]
TAAR1; [5]
  EC50: 0.062 µM
[1]
  AUC(0-t): 0.0547 µM·h
  Cmax: 0.0223 µM
  MRT last: 1.68 h
  Tmax: 1.5 h
[2]; 10 mg/kg intragastric
  effect on MK801-induced overactivity (conclusion): good inhibition effect
[2]; 1-b 10 mg/kg intragastric
  total movement distance after modeling: 6493.12±6228.87 mm
[3]
  effect on MK801-induced overactivity (conclusion): good inhibition effect
  total movement distance after modeling: 13644.54±10814.85 mm
[4]; SD rats, 1-b IG 5 mg/kg vs IV 2 mg/kg
  F: 66.6 ± 8.12%
[4]; [6]
  Cl_obs: 28.8 ± 3.25 mL/min/kg
  Vss_obs: 2.91 ± 0.68 L/kg
[4]; [7]
  AUC(0-t): 9.95 ± 1.21 µM·h
  MRT last: 2.33 ± 0.465 h
  Tmax: 0.417 ± 0.144 h
  half-life: 1.85 ± 0.217 h
  Cmax: 3.73 ± 0.846 µM
[4]; [8]
  AUC(0-t): 5.97 ± 0.642 µM·h
  MRT last: 1.6 ± 0.203 h
  half-life: 1.76 ± 0.344 h
  Cmax: 7.54 ± 2.28 µM

## CN1CCN2CCc3ccsc3[C@@H]2C1 [Compound 2-a]
TAAR1; [5]
  EC50: 4.4 µM
[3]
  effect on MK801-induced overactivity (conclusion): good inhibition effect
  total movement distance after modeling: 9161.61±4711.10 mm
[4]; rat, in vivo
  Exposure and bioavailability (conclusion): relatively high exposure and bioavailability

## CN1CCN2CCc3ccsc3[C@H]2C1 [Compound 2-b]
TAAR1; [5]
  EC50: > 10 µM

## Fc1csc(C2CNCCO2)c1 (centres unmarked) [Compound 8]
TAAR1; [9]
  EC50: 0.295 µM

## Fc1ccc(C2CNCCO2)s1 (centres unmarked) [Compound 9]
TAAR1; [5]
  EC50: 0.734 µM

## COc1csc([C@@H]2CNCCO2)c1 [Compound 11-a]
TAAR1; [9]
  EC50: > 10 µM

## COc1csc([C@H]2CNCCO2)c1 [Compound 11-b]
TAAR1; [9]
  EC50: 2.16 µM

## COc1ccc([C@@H]2CNCCO2)s1 [Compound 12-a]
TAAR1; [9]
  EC50: > 10 µM

## COc1ccc([C@H]2CNCCO2)s1 [Compound 12-b]
TAAR1; [9]
  EC50: 1.59 µM

## CC(C)Oc1ccsc1C1CNCCO1 (centres unmarked) [Compound 15]
TAAR1; [9]
  EC50: > 10 µM

## FC(F)COc1ccsc1C1CNCCO1 (centres unmarked) [Compound 19]
TAAR1; [9]
  EC50: > 10 µM

## FC(F)(F)COc1ccsc1C1CNCCO1 (centres unmarked) [Compound 20]
TAAR1; [5]
  EC50: 4.72 µM

## CNCC1OC(COC)Cc2ccsc21 (centres unmarked) [Compound 30]
TAAR1; [5]
  EC50: > 10 µM

## CNCC1OC(C)(C)Cc2ccsc21 (centres unmarked) [Compound 34]
TAAR1; [5]
  EC50: 1.25 µM

## CNCC1OCC(C)(C)c2ccsc21 (centres unmarked) [Compound 35]
TAAR1; [5]
  EC50: > 10 µM

## CNCC1OCCc2ccoc21 (centres unmarked) [Compound 37]
TAAR1; [5]
  EC50: 1.23 µM

## CNC[C@@H]1NCCc2ccsc21 [Compound 38-a]
TAAR1; [5]
  EC50: > 10 µM

## CNC[C@H]1NCCc2ccsc21 [Compound 38-b]
TAAR1; [5]
  EC50: 7.96 µM

## OC[C@H]1OCCc2ccsc21 [Compound 39-a]
TAAR1; [5]
  EC50: > 10 µM

## OC[C@@H]1OCCc2ccsc21 [Compound 39-b]
TAAR1; [5]
  EC50: > 10 µM

## CNC[C@@H]1SCCc2ccsc21 [Compound 40-a]
TAAR1; [5]
  EC50: > 10 µM

## CNC[C@H]1SCCc2ccsc21 [Compound 40-b]
TAAR1; [5]
  EC50: 0.522 µM

## NC[C@@H]1NCCc2ccsc21 [Compound 41-a]
TAAR1; [5]
  EC50: 9.1 µM

## NC[C@H]1NCCc2ccsc21 [Compound 41-b]
TAAR1; [5]
  EC50: 0.424 µM

## c1cc(C2CC2)c(C2CNCCO2)s1 (centres unmarked) [Compound 59]
TAAR1; [5]
  EC50: 2.91 µM

## FCCOc1ccsc1C1CNCCO1 (centres unmarked) [Compound 60]
TAAR1; [9]
  EC50: 9.8 µM

## CNCC1c2sccc2CCN1C (centres unmarked) [Compound 61]
TAAR1; [5]
  EC50: > 10 µM

## CC(OC(=O)C(C)C)OC(=O)N1CCN2CCc3ccsc3[C@@H]2C1 (some centres unmarked) [Compound L27]
[2]; L27 hydrochloride 16 mg/kg intragastric
  total movement distance after modeling: 8100.56±7787.37 mm
[4]; SD rats, after intragastric L27 9 mg/kg
  Detection of L27 in plasma: L27 was not detected
